Reference: patent US20250154138A1, “Small Molecule IL-17A Modulators” (BeiGene, Ltd., priority 2022, published 2025)

Legend:
[1] = tested on: IL-17-induced GROα secretion from HT-29 cells; assay: GROα release assay in human colorectal adenocarcinoma epithelial cell (HT-29, ELISA); assay type: cell-based; details: Homo sapiens, HT-29, 48 h, 10 ng/mL IL-17A, highest concentration 10 μM, read-out: Cellular assay HT29 cell/CXCL1 IC50
Procedure, shortened: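 HT-29 cells were exposed 48 h at 37°C to IL-17A (final 10 ng/mL) preincubated 15 min with compound (4-fold dilutions, top 10 μM). Secreted GROα was quantified by ELISA against a standard curve, and IC50 obtained by four-parameter fitting.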

[2] = target: human IL-17A / human IL-17RA (Homo sapiens (Human), UniProt Q16552); assay: Human IL-17A biochemical assay (HTRF, blocking of IL-17A binding to IL-17RA); details: 0.4 nM IL-17A, 0.3 nM IL-17RA, max compound concentration 10 uM
Procedure, shortened: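 0.4 nM hIL-17A + cpd (10 uM top, 2.7x, 10 pt), 3 h RT, HEPES pH 7.5 buffer w/ BSA, DTT, Tween 20; + 0.3 nM hIL-17RA 1 h RT; Tb/XL665 Abs 1 h; HTRF 620/665 ratio; 4PL IC50.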

Chain of human IL-17A / human IL-17RA (Q16552 24-155): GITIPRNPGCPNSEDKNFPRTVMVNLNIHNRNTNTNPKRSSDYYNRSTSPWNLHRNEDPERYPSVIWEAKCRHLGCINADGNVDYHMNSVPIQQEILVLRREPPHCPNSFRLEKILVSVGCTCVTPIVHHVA

SMILES	IC50 [1] [nM]	IC50 [2] [nM]
COCC1(N2C[C@@H](C(C)C)NC2=O)Cc2ccc(NC(=O)[C@@H](NC(=O)c3ccnn3C)C(C3CC3)C3CC3)cc2C1 (stereo partly drawn) [Example 245, N-((2S)-1,1-dicyclopropyl-3-((2-((R)-4-isopropyl-2-oxoimidazolidin-1-yl)-2-(methoxymethyl)-2,3-dihydro-1H-inden-5-yl)amino)-3-oxopropan-2-yl)-1-methyl-1H-pyrazole-5-carboxamide]	92.5	52.4
Cc1nonc1C(=O)N[C@H](C(=O)Nc1ccc2c(c1)CC(N1CC3(CC3)CNC1=O)(C(C)(C)O)C2)C1CCC(F)(F)CC1 (stereo partly drawn) [Example 247, N-((1S)-1-(4,4-difluorocyclohexyl)-2-((2-(2-hydroxypropan-2-yl)-2-(6-oxo-5,7-diazaspiro[2.5]octan-5-yl)-2,3-dihydro-1H-inden-5-yl)amino)-2-oxoethyl)-4-methyl-1,2,5-oxadiazole-3-carboxamide]	40.8	20.9
Cc1nonc1C(=O)N[C@H](C(=O)Nc1ccc2c(c1)OC(CN1C[C@@H](C(F)(F)F)NC1=O)C2)C(C1CC1)C1CC1 (stereo partly drawn) [Example 255, N-((2S)-1,1-dicyclopropyl-3-oxo-3-((2-(((S)-2-oxo-4-(trifluoromethyl)imidazolidin-1-yl)methyl)-2,3-dihydrobenzofuran-6-yl)amino)propan-2-yl)-4-methyl-1,2,5-oxadiazole-3-carboxamide]	666	165
CC(C)n1nccc1C(=O)N[C@H](C(=O)Nc1ccc2c(c1)OC(CN1C[C@@H](C(F)(F)F)NC1=O)C2)C(C1CC1)C1CC1 (stereo partly drawn) [Example 256, N-((2S)-1,1-dicyclopropyl-3-oxo-3-((2-(((S)-2-oxo-4-(trifluoromethyl)imidazolidin-1-yl)methyl)-2,3-dihydrobenzofuran-6-yl)amino)propan-2-yl)-1-isopropyl-1H-pyrazole-5-carboxamide]	82	50.2
Cc1nonc1C(=O)N[C@H](C(=O)Nc1ccc2c(c1)OC(CN1C[C@@H](C(F)(F)F)NC1=O)C2)C1CCC(F)(F)CC1 (stereo partly drawn) [Example 257, N-((1S)-1-(4,4-difluorocyclohexyl)-2-oxo-2-((2-(((S)-2-oxo-4-(trifluoromethyl)imidazolidin-1-yl)methyl)-2,3-dihydrobenzofuran-6-yl)amino)ethyl)-4-methyl-1,2,5-oxadiazole-3-carboxamide]	2500	938
Cn1nccc1C(=O)N[C@H](C(=O)Nc1ccc2c(c1)OC(CN1C[C@@H](C(F)(F)F)NC1=O)C2)C1CCC(F)(F)CC1 (stereo partly drawn) [Example 258, N-((1S)-1-(4,4-difluorocyclohexyl)-2-oxo-2-((2-(((S)-2-oxo-4-(trifluoromethyl)imidazolidin-1-yl)methyl)-2,3-dihydrobenzofuran-6-yl)amino)ethyl)-1-methyl-1H-pyrazole-5-carboxamide]	209	108
Cc1ccccc1NC(=O)C1(N2C[C@@H](C(C)C)NC2=O)Cc2ccc(NC(=O)[C@@H](NC(=O)c3nonc3C)C(C3CC3)C3CC3)cc2C1 (stereo partly drawn) [Example 261, N-((2S)-1,1-dicyclopropyl-3-((2-((R)-4-isopropyl-2-oxoimidazolidin-1-yl)-2-(o-tolylcarbamoyl)-2,3-dihydro-1H-inden-5-yl)amino)-3-oxopropan-2-yl)-4-methyl-1,2,5-oxadiazole-3-carboxamide]	143	58
Cc1nonc1C(=O)N[C@H](C(=O)Nc1ccc2c(c1)CC(C(=O)Nc1ccccc1F)(N1C[C@@H](C(C)C)NC1=O)C2)C(C1CC1)C1CC1 (stereo partly drawn) [Example 262, N-((2S)-1,1-dicyclopropyl-3-((2-((2-fluorophenyl)carbamoyl)-2-((R)-4-isopropyl-2-oxoimidazolidin-1-yl)-2,3-dihydro-1H-inden-5-yl)amino)-3-oxopropan-2-yl)-4-methyl-1,2,5-oxadiazole-3-carboxamide]	447	99.4
Cc1nonc1C(=O)N[C@H](C(=O)Nc1ccc2c(c1)CC(C(=O)Nc1ccccc1Cl)(N1C[C@@H](C(C)C)NC1=O)C2)C(C1CC1)C1CC1 (stereo partly drawn) [Example 263, N-((2S)-1-((2-((2-chlorophenyl)carbamoyl)-2-((R)-4-isopropyl-2-oxoimidazolidin-1-yl)-2,3-dihydro-1H-inden-5-yl)amino)-3,3-dicyclopropyl-1-oxopropan-2-yl)-4-methyl-1,2,5-oxadiazole-3-carboxamide]	447	97.1

More lines, now with the values ahead:

IC50 [1] [nM]	IC50 [2] [nM]	SMILES
317	290	Cc1nonc1C(=O)N[C@H](C(=O)Nc1ccc2c(c1)CC(C(=O)Nc1cccc(F)c1)(N1C[C@@H](C(C)C)NC1=O)C2)C1CCC(F)(F)CC1 (stereo partly drawn) [Example 243, N-((1S)-1-(4,4-difluorocyclohexyl)-2-((2-((3-fluorophenyl)carbamoyl)-2-((R)-4-isopropyl-2-oxoimidazolidin-1-yl)-2,3-dihydro-1H-inden-5-yl)amino)-2-oxoethyl)-4-methyl-1,2,5-oxadiazole-3-carboxamide]
1570	2130	COCC1(N2C[C@@H](C(C)C)NC2=O)Cc2ccc(NC(=O)[C@@H](NC(=O)c3nonc3C)C(C3CC3)C3CC3)cc2C1 (stereo partly drawn) [Example 244, N-((2S)-1,1-dicyclopropyl-3-((2-((R)-4-isopropyl-2-oxoimidazolidin-1-yl)-2-(methoxymethyl)-2,3-dihydro-1H-inden-5-yl)amino)-3-oxopropan-2-yl)-4-methyl-1,2,5-oxadiazole-3-carboxamide]
1220	257	Cc1nonc1C(=O)N[C@H](C(=O)Nc1ccc2c(c1)CC(c1cn3ncccc3n1)(N1C[C@@H](C(C)C)NC1=O)C2)C(C1CC1)C1CC1 (stereo partly drawn) [Example 246, N-((2S)-1,1-dicyclopropyl-3-((2-(imidazo[1,2-b]pyridazin-2-yl)-2-((R)-4-isopropyl-2-oxoimidazolidin-1-yl)-2,3-dihydro-1H-inden-5-yl)amino)-3-oxopropan-2-yl)-4-methyl-1,2,5-oxadiazole-3-carboxamide]
427	126	CNC(=O)C1(N2C[C@@H](C(C)C)NC2=O)Cc2ccc(NC(=O)[C@@H](NC(=O)c3nonc3C)C(C3CC3)C3CC3)cc2C1 (stereo partly drawn) [Example 248, N-((2S)-1,1-dicyclopropyl-3-((2-((R)-4-isopropyl-2-oxoimidazolidin-1-yl)-2-(methylcarbamoyl)-2,3-dihydro-1H-inden-5-yl)amino)-3-oxopropan-2-yl)-4-methyl-1,2,5-oxadiazole-3-carboxamide]
695	226	Cc1nonc1C(=O)N[C@H](C(=O)Nc1ccc2c(c1)CC(C(=O)Nc1ccccc1F)(N1C[C@@H](C(C)C)NC1=O)C2)C1CCC(F)(F)CC1 (stereo partly drawn) [Example 249, N-((1S)-1-(4,4-difluorocyclohexyl)-2-((2-((2-fluorophenyl)carbamoyl)-2-((R)-4-isopropyl-2-oxoimidazolidin-1-yl)-2,3-dihydro-1H-inden-5-yl)amino)-2-oxoethyl)-4-methyl-1,2,5-oxadiazole-3-carboxamide]
1510	1510	Cc1nonc1C(=O)N[C@H](C(=O)Nc1ccc2c(c1)CC(c1ccc(F)cc1)(N1C[C@@H](C(C)C)NC1=O)C2)C(C1CC1)C1CC1 (stereo partly drawn) [Example 251, N-((2S)-1,1-dicyclopropyl-3-((2-(4-fluorophenyl)-2-((R)-4-isopropyl-2-oxoimidazolidin-1-yl)-2,3-dihydro-1H-inden-5-yl)amino)-3-oxopropan-2-yl)-4-methyl-1,2,5-oxadiazole-3-carboxamide]
1160	829	Cc1nonc1C(=O)N[C@H](C(=O)Nc1ccc2c(c1)CC(c1c[nH]c(C3CC3)n1)(N1C[C@@H](C(C)C)NC1=O)C2)C(C1CC1)C1CC1 (stereo partly drawn) [Example 252, N-((2S)-1,1-dicyclopropyl-3-((2-(2-cyclopropyl-1H-imidazol-4-yl)-2-((R)-4-isopropyl-2-oxoimidazolidin-1-yl)-2,3-dihydro-1H-inden-5-yl)amino)-3-oxopropan-2-yl)-4-methyl-1,2,5-oxadiazole-3-carboxamide]
331	355	Cc1ccccc1NC(=O)C1(N2C[C@@H](C(C)C)NC2=O)Cc2ccc(NC(=O)[C@@H](NC(=O)c3nonc3C)C3CCC(F)(F)CC3)cc2C1 (stereo partly drawn) [Example 253, N-((1S)-1-(4,4-difluorocyclohexyl)-2-((2-((R)-4-isopropyl-2-oxoimidazolidin-1-yl)-2-(o-tolylcarbamoyl)-2,3-dihydro-1H-inden-5-yl)amino)-2-oxoethyl)-4-methyl-1,2,5-oxadiazole-3-carboxamide]
318	178	COc1ccccc1NC(=O)C1(N2C[C@@H](C(C)C)NC2=O)Cc2ccc(NC(=O)[C@@H](NC(=O)c3nonc3C)C(C3CC3)C3CC3)cc2C1 (stereo partly drawn) [Example 254, N-((2S)-1,1-dicyclopropyl-3-((2-((R)-4-isopropyl-2-oxoimidazolidin-1-yl)-2-((2-methoxyphenyl)carbamoyl)-2,3-dihydro-1H-inden-5-yl)amino)-3-oxopropan-2-yl)-4-methyl-1,2,5-oxadiazole-3-carboxamide]
1970	1020	Cc1nonc1C(=O)N[C@H](C(=O)Nc1ccc2c(c1)CC(C(=O)Nc1cccc(Cl)c1)(N1C[C@@H](C(C)C)NC1=O)C2)C(C1CC1)C1CC1 (stereo partly drawn) [Example 259, N-((2S)-1-((2-((3-chlorophenyl)carbamoyl)-2-((R)-4-isopropyl-2-oxoimidazolidin-1-yl)-2,3-dihydro-1H-inden-5-yl)amino)-3,3-dicyclopropyl-1-oxopropan-2-yl)-4-methyl-1,2,5-oxadiazole-3-carboxamide]
